The test system of this assay is STAT6. As to the kind of experiment: Inhibitory test on STAT6 activation: IL-4-induced alkali phosphatase STAT6 reporter in 293 cells stably expressing the STAT6 gene and STAT6 reporter gene. It counts as cell-based. Particulars: HEK293, 1 ng/ml human recombinant IL-4, 16 hours, 293 cells with STAT6 reporter, read-out: Inhibitory activity IC50 (concentration at which the alkali phosphatase activity induced by IL-4 was inhibited by 50%). The procedure, abridged: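 HEK293 clone stably carrying STAT6 and a STAT6-element-driven alkaline phosphatase reporter, 5000 cells/well. Compound (DMSO ≤0.1%) plus 1 ng/ml human IL-4 for 16 hours. Supernatant heat-treated 65° C. 10 minutes, then alkaline phosphatase measured fluorometrically in carbonate buffer.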
In general terms: A reporter such as luciferase makes a cellular process visible.

The structures appear in SMILES notation. Where a name gives a salt, the structure may show the parent alone. Read-outs that look alike come from different tables or passages of the source.

As for `O=S(=O)(c1ccc(OC2CCN(c3ccnc4ccc(-c5c[nH]nc5C(F)(F)F)cc34)CC2)cc1)C(F)(F)F` [Example 1034, 4-[4-(4-Trifluoromethylsulfonylphenoxy)piperidin-1-yl]-6-(3-trifluoromethyl-1H-pyrazol-4-yl)quinoline trihydrochloride], where the note is “Table 2”, the IC50 lay in the range of 10 to 100 nM.
Regarding `C[C@H](NC(=O)c1ccc(-n2cnc3ccc(-c4cn[nH]c4)cc32)cc1F)C(=O)c1ccc(F)cc1` [Example 729, N1-[(1S)-2-(4-Fluorophenyl-1-methyl-2-oxoethyl)-2-fluoro-4-[6-(1H-4-pyrazolyl)-1H-benzo[d]imidazol-1-yl]benzamide hydrochloride], where the note is “Table 2”, the IC50 is below 10 nM.
In the case of `O=C(NC1(c2ccc(F)cc2)CC1)c1ccc(-c2cnc3ccc(-c4cn[nH]c4)cn23)cc1F` [Example 663, N1-[1-(4-Fluorophenyl)cyclopropyl]-2-fluoro-4-[6-(1H-4-pyrazolyl)imidazo[1,2-a]pyridin-3-yl]benzamide hydrochloride], where the note is “Table 1”, the IC50 was below 10 nM.
Take `Cc1ccc(-c2n[nH]cc2-c2ccc3ncnc(-c4ccc(S(C)(=O)=O)s4)c3c2)cc1` [Example 890, 4-(5-Methylsulfonylthiophen-2-yl)-6-(3-p-tolyl-1H-pyrazol-4-yl) quinazoline]: the IC50 (Table 2) was below 10 nM.
Still for that read-out and setting: the figure for `COc1ccc(-c2n[nH]cc2-c2ccc3ncnc(N4CCN(c5cccc(S(C)(=O)=O)c5)CC4)c3c2)cc1OC` [Example 963, 6-[3-(3,4-Dimethoxyphenyl)-1H-pyrazol-4-yl]-4-[4-(3-methylsulfonylphenyl)piperazin-1-yl]-quinazoline tri-trifluoroacetate] is below 10 nM.
Turning to `Cc1n[nH]cc1-c1ccc2ncc(-c3ccc(CN4CCC[C@H]4C(N)=O)s3)n2c1` [Example 120, (2S)-1-({5-[6-(3-Methyl-1H-4-pyrazolyl)imidazo[1,2-a]-pyridin-3-yl]-2-thienyl}methyl)tetrahydro-1H-2-pyrrole carboxyamide trihydrochloride], the IC50 (Table 1) is below 10 nM.
The same measure, in the same setting: the result for `CS(=O)(=O)c1ccc(-c2n[nH]cc2-c2ccc3ncc(-c4ccc(C#N)cc4)n3c2)cc1` [Example 102, 4–6-(3-[4-(Methylsulfonyl)phenyl]-1H-4-pyrazolyl}imidazo-[1,2-a]pyridin-3-yl)benzonitrile dihydrochloride] reads 10 to 100 nM.
For `Cc1cc(-c2ccnc3ccc(-c4c[nH]nc4C(F)(F)F)cc23)on1` [Example 1070, 4-(3-Methylisoxazol-5-yl)-6-(3-trifluoromethyl-1H-pyrazol-4-yl) quinoline], the IC50 (Table 2) lay within 10 to 100 nM.
Still for that read-out and setting: the figure for `CN(C)CCN(C)S(=O)(=O)c1ccc(-c2ncnc3ccc(-c4c[nH]nc4-c4ccc(F)cc4)cc23)s1` [Example 855, 5-{6-[3-(4-Fluorophenyl)-1H-pyrazol-4-yl]quinazolin-4-yl}-thiophen-2-sulfonic acid (2-dimethylaminoethyl)methylamide trihydrochloride] is below 10 nM.
On the same count and under the same terms, the figure for `COc1ccc(-c2ccc(-c3n[nH]cc3-c3ccc4ncnc(-c5ccc(S(C)(=O)=O)s5)c4c3)cc2)cn1` [Example 889, 6-{3-[4-(6-Methoxypyridin-3-yl)phenyl]-1H-pyrazol-4-yl}-4-(5-methylsulfonylthiophen-2-yl) quinazoline] is 10 to 100 nM.
As to `CCc1ccc(C(=O)C(C)(C)NC(=O)c2ccc(-c3cnc4ccc(-c5cn[nH]c5)cn34)cc2F)cc1` [Example 676, N1-[2-(4-Ethylphenyl)-1,1-dimethyl-2-oxyethyl]-2-fluoro-4-[6-(1H-4-pyrazolyl)imidazo[1,2-a]pyridin-3-yl]benzamide hydrochloride], the IC50 (Table 1) lay within 10 to 100 nM.
The same measure, in the same setting: the figure for `Fc1ccc(-c2n[nH]cc2-c2ccc3ncc(-c4ccc(Cl)s4)n3c2)cc1` [Example 70, 3-(5-Chloro-2-thienyl)-6-[3-(4-fluorophenyl)-1H-4-pyrazolyl]imidazo[1,2-a]pyridine dihydrochloride] is 10 to 100 nM.
For the compound `CS(=O)(=O)c1ccccc1NC(=O)c1ccc(-c2cnc3ccc(-c4cn[nH]c4)cn23)cc1F` [Example 701, N1-[2-(Methylsulfonyl)phenyl]-2-fluoro-4-[6-(1H-4-pyrazolyl)imidazo[1,2-a]pyridin-3-yl]benzamide hydrochloride], for the setting “Table 2”, the IC50 lay within 10 to 100 nM.
On the same count and under the same terms, the figure for `O=C(Nc1cccc(N2CCN(c3ncnc4ccc(-c5cn[nH]c5)cc34)CC2)c1)C1CC1` [Example 976, Cyclopropanecarboxylic acid (3-{4-[6-(1H-pyrazol-4-yl)quinazolin-4-yl]piperazin-1-yl}phenyl)amide tri-trifluoroacetate] is below 10 nM.
